± gives the expanded uncertainty stated by the source.
Test: wn = mass fraction of the nth substance listed
Details: 298.15 K, 101 kPa, Liquid; for viscosity: Capillary tube (Ostwald / Ubbelohde) method; for mass density: Pycnometric method

viscosity (w1 = 0.1)	viscosity (w1 = 0.2)	viscosity (w1 = 0.3)	viscosity (w1 = 1)	mass density (w1 = 0.1)	mass density (w1 = 0.2)	mass density (w1 = 0.3)	mass density (w1 = 1)	viscosity (w2 = 0)	mass density (w2 = 0)	SMILES
0.49 ± 0.014 mPa·s	0.51 ± 0.014 mPa·s	0.53 ± 0.015 mPa·s	1.2 ± 0.031 mPa·s	894.1 ± 4.5 kg/m3	907.1 ± 4.6 kg/m3	919 ± 4.8 kg/m3	1030.5 ± 6 kg/m3	–	–	C1COCCO1 [1,4-dioxane] + C1CCOC1
–	–	–	–	–	–	–	–	0.463 ± 0.013 mPa·s	880.7 ± 4.4 kg/m3	C1CCOC1 [tetrahydrofuran] + C1COCCO1

— the NIST ThermoML archive (doi:10.1021/je7004787)
